Measurements published in ChEMBL document CHEMBL5143616, “Novel biphenyl-based scaffold as potent and selective histone deacetylase 6 (HDAC6) inhibitors: Identification, development and pharmacological evaluation” (Eur J Med Chem, 2022).
Each block holds one compound with its values, some of them ahead of it. Activity calls are given as the source filed them. The calls are words filed in the database; no cut-off is given here.

Experiments:
[1] = molecular target: Histone deacetylase 2 (Homo sapiens, UniProt Q92769)
Description: Inhibition of HDAC2 (unknown origin) using Boc-Lys-(acetyl)-AMC as substrate incubated for 0.5 hr and measured after 20 mins by fluorescence assay

[2] = molecular target: Histone deacetylase 3 (Homo sapiens, UniProt O15379); test: Inhibition of HDAC3 (unknown origin)
[3] = molecular target: T1, Histone deacetylase 8 (Homo sapiens, UniProt Q9BY41); test: Inhibition of HDAC8 (unknown origin) using Boc-Lys-(triflouroacetyl)-AMC as substrate incubated for 0.5 hr and measured after 20 mins by fluorescence assay
T1 sequence (Q9BY41 whole entry): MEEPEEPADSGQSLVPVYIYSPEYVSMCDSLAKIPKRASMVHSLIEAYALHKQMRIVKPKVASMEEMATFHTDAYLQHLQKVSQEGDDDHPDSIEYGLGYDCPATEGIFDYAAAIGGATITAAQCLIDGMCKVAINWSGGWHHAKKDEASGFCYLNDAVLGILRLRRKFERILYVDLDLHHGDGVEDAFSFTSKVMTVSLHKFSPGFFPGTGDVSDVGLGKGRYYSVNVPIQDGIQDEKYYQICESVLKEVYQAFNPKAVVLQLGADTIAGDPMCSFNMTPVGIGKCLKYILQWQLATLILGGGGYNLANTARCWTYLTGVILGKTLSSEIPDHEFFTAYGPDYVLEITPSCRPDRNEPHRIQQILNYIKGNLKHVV

[4] = molecular target: T2, Protein deacetylase HDAC6 (Mus musculus) (UniProt Q9Z2V5); test: Inhibition of HDAC6 in mouse B16 cells assessed as accumulation of acetylated alpha-tubulin level after 24 hrs by Western blotting analysis; format: cell-based
T2 sequence (whole entry): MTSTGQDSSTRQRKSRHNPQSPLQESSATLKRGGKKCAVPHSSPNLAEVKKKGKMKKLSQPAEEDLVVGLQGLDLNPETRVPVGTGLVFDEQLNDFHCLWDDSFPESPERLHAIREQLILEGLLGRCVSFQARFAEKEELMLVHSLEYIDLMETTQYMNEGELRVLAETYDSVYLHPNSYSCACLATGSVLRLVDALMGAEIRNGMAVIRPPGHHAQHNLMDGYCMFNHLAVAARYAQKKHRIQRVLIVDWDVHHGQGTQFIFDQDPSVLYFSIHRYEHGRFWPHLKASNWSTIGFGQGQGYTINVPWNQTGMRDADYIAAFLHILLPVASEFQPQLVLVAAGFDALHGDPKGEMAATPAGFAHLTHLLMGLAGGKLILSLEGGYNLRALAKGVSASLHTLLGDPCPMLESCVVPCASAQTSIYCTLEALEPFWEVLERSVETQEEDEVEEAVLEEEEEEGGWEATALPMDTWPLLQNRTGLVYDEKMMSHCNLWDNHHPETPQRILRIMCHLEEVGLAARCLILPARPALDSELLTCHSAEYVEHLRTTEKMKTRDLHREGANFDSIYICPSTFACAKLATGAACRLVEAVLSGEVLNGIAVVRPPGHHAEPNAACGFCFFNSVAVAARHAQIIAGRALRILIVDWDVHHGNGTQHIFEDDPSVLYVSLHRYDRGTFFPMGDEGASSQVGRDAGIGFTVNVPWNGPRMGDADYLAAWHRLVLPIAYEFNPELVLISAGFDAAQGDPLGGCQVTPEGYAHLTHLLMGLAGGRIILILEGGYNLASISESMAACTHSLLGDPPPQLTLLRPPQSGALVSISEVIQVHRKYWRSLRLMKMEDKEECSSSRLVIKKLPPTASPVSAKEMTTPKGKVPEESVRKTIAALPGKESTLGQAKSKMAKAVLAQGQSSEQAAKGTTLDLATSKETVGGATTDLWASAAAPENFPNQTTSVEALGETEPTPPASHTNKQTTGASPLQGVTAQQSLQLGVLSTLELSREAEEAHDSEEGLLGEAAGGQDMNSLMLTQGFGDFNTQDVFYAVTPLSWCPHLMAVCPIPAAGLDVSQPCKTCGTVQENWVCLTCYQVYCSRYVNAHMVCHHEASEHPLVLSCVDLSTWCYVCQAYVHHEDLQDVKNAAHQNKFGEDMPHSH

[5] = molecular target: T2, Protein deacetylase HDAC6 (Mus musculus); test: Inhibition of HDAC6 in mouse B16 cells assessed as accumulation of acetylated alpha-tubulin level at 6 uM after 2 to 12 hrs by Western blotting analysis; format: cell-based; settings: time 2-12 hrs, TDE = time-dependent effect
[6] = molecular target: T2, Protein deacetylase HDAC6 (Mus musculus); test: Inhibition of HDAC6 in mouse B16 cells assessed as accumulation of acetylated alpha-tubulin level at 2 to 6 uM after 24 hrs by Western blotting analysis; format: cell-based; settings: dose 2-6 µM, DDE = dose-dependent effect
[7] = molecular target: T2, Protein deacetylase HDAC6 (Mus musculus); test: Inhibition of HDAC6 in mouse CT26 cells assessed as accumulation of acetylated alpha-tubulin level at 6 uM after 2 to 24 hrs by Western blotting analysis; format: cell-based; settings: time 2-24 hrs, TDE = time-dependent effect
[8] = molecular target: T2, Protein deacetylase HDAC6 (Mus musculus); test: Inhibition of HDAC6 in mouse CT26 cells assessed as accumulation of acetylated alpha-tubulin level at 2 to 6 uM after 24 hrs by Western blotting analysis; format: cell-based; settings: dose 2-6 µM, DDE = dose-dependent effect
[9] = Stability in mouse plasma incubated for 6 hrs in presence of NADPH and measured by LC-MS/MS analysis; format: ADME, cell-free; settings: read-out: Stability
[10] = Stability in human plasma incubated for 6 hrs in presence of NADPH and measured by LC-MS/MS analysis; format: ADME, cell-free; settings: read-out: Stability
[11] = Stability in mouse liver microsomes assessed as half-life and measured by LC-MS/MS analysis; format: ADME, Microsome
[12] = Stability in mouse liver microsomes assessed as clearance and measured by LC-MS/MS analysis; format: ADME, Microsome; settings: read-out: CLH
[13] = Stability in human liver microsomes assessed as half-life and measured by LC-MS/MS analysis; format: ADME, Microsome
[14] = Stability in human liver microsomes assessed as clearance and measured by LC-MS/MS analysis; format: ADME, Microsome; settings: read-out: CLH
[15] = test system: B16; test: Antiproliferative activity against mouse B16 cells after 72 hrs by MTT assay; format: functional, cell-based; settings: B16, 72 h
[16] = test system: CT26; test: Induction of apoptosis in mouse CT26 cells assessed as apoptotic cells at 6 uM measured by Annexin V-FITC/PI staining based flow cytometry method; format: functional
[17] = test system: CT26; test: Antitumor immunity in C57BL/6 mouse xenografted with mouse CT26 cells assessed as increase in CD3+ CD8+ cytotoxic T cells at 100 mg/kg, po administered once daily for 21 days measured by flow cytometry analysis; format: functional; settings: time 21 day
[18] = test system: CT26; test: Antitumor immunity in C57BL/6 mouse xenografted with mouse CT26 cells assessed as decrease in number of CD4+CD25+ CD127- T regulatory cells at 100 mg/kg, po administered once daily for 21 days measured by flow cytometry analysis; format: functional; set-up: scale not given: the % may be the effect or the level left; settings: time 21 day
[19] = test system: CT26; test: Antitumor immunity in C57BL/6 mouse xenografted with mouse CT26 cells assessed as decrease in number of CD8+IFNgamma+ T cells at 100 mg/kg, po administered once daily for 21 days measured by flow cytometry analysis; format: functional; set-up: scale not given: the % may be the effect or the level left; settings: time 21 day
[20] = test system: CT26; test: Antitumor immunity in C57BL/6 mouse xenografted with mouse CT26 cells assessed as increase in CD3+ cytotoxic T cells at 50 mg/kg, po administered once daily for 21 days measured by flow cytometry analysis; format: functional; settings: time 21 day

Sequence of Histone deacetylase 3 (O15379 whole entry): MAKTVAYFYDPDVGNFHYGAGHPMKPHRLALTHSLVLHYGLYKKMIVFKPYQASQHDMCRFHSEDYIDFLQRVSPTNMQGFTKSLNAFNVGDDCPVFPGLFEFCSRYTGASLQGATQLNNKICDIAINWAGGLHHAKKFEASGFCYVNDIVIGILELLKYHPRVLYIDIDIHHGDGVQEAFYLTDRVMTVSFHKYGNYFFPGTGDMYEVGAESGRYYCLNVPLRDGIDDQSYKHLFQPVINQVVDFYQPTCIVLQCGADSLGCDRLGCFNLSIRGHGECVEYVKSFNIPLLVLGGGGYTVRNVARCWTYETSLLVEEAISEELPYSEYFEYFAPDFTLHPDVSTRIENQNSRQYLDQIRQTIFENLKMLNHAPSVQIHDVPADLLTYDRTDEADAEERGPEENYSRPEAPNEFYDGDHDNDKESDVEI
Sequence of Histone deacetylase 2 (Q92769 whole entry): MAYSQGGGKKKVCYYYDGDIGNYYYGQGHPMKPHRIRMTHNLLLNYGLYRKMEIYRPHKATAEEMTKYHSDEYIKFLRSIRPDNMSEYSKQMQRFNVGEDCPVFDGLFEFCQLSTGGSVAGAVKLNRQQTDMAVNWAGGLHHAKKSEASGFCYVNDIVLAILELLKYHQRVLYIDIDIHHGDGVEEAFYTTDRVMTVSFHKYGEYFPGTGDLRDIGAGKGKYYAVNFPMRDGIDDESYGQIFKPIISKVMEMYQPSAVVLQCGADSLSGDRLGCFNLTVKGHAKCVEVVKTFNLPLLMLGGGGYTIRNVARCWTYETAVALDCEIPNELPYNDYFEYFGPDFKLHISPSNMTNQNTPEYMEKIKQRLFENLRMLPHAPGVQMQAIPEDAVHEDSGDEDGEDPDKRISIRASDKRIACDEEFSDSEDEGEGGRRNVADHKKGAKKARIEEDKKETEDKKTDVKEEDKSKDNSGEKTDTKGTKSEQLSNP

Structure (SMILES): Cc1c(COc2ccc(CNCCCCCCC(=O)NO)c(OCc3cccc(C#N)c3)c2)cccc1-c1ccccc1
acetylated alpha-tubulin accumulation [4]: Active

Structure (SMILES): O=C(CCCCCCC(=O)Nc1ccccc1)NO [VORINOSTAT]
IC50 [15]: 2.26 µM | Activity [16]: 26% | remaining at 6 h [9]: 20% | remaining at 6 h [10]: 77% | t1/2 ([11]; microsomes): 11.6 h | microsomal CLint [12]: 2.04 µL/min/mg | half-life [13]: 4.32 h | microsomal CLint [14]: 4.02 µL/min/mg | Activity [17]: 32.56% | Activity [18]: 27.99% | Activity [19]: 21.12% | Activity [20]: 57.83%

Continued, values first:

IC50 [1]: 0.172 µM | IC50 [2]: 0.046 µM | IC50 [3]: 2.18 µM | acetylated alpha-tubulin accumulation [4]: Active | inhibition [5]: Tde | inhibition [6]: Dde | inhibition [7]: Tde | inhibition [8]: Dde | remaining at 6 h [9]: 23% | remaining at 6 h [10]: 97% | half-life ([11]; liver microsomes): 1.13 h | microsomal CLint [12]: 20.4 µL/min/mg | half-life [13]: 1.7 h | microsomal CLint [14]: 34.1 µL/min/mg
Structure (SMILES): COc1cc(OCc2cccc(-c3ccccc3)c2C)cc(OC)c1CNCCCCCCC(=O)NO

acetylated alpha-tubulin accumulation [4]: Active
Structure (SMILES): COc1cc(OCc2cccc(-c3ccccc3)c2C)cc(OC)c1CNCCCCCC(=O)NO

acetylated alpha-tubulin accumulation [4]: Active
Structure (SMILES): COc1cc(OCc2cccc(-c3ccc4c(c3)OCCO4)c2C)cc(OC)c1CNCCCCCC(=O)NO
